Assay results: PubChem BioAssay (NCI)
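Tested at 5 concentrations; 48 h exposure; 96-well plates; endpoints linearly interpolated, else capped at highest concentration. Abbreviation: GI50, concentration required for 50% inhibition of growth. At the TGI there is no net growth.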

How the values were obtained:
Experiment in all cases: DTP human tumour cell line panel, 48 h
[1] = test system: MDA-MB-468 breast
[2] = test system: KM12 colon
[3] = test system: MDA-MB-231 breast
[4] = test system: SK-MEL-28 melanoma
[5] = test system: IGROV1 ovarian
[6] = test system: SF-539 CNS
[7] = test system: NCI-H522 lung
[8] = test system: SNB-75 CNS
[9] = test system: HCT-116 colon
[10] = test system: HOP-62 NSCLC
[11] = test system: PC-3 prostate
[12] = test system: U251 CNS
[13] = test system: RXF 393 renal
[14] = test system: OVCAR-8 ovarian
[15] = test system: LOX IMVI melanoma
[16] = test system: BT-549 breast
[17] = test system: M14 melanoma
[18] = test system: OVCAR-5 ovarian
[19] = test system: A549 NSCLC
[20] = test system: UACC-62 melanoma
[21] = test system: HCT-15 colon
[22] = test system: SK-OV-3 ovarian
[23] = test system: UACC-257 melanoma
[24] = test system: MCF7 breast
[25] = test system: NCI-H226 lung
[26] = test system: SK-MEL-2 melanoma
[27] = test system: K-562 leukemia
[28] = test system: HL-60(TB) leukemia
[29] = test system: 786-0 renal
[30] = test system: SNB-19 CNS
[31] = test system: SR leukemia
[32] = test system: DU-145 prostate
[33] = test system: T-47D breast
[34] = test system: OVCAR-3 ovarian
[35] = test system: COLO 205 colon
[36] = test system: MOLT-4 leukemia
[37] = test system: HCC-2998 colon
[38] = test system: SN12C renal
[39] = test system: SK-MEL-5 melanoma
[40] = test system: NCI-H23 lung
[41] = test system: A498 renal
[42] = test system: HOP-92 NSCLC
[43] = test system: NCI/ADR-RES ovarian
[44] = test system: SF-295 CNS
[45] = test system: TK-10 renal

## CC(=O)Oc1ccc(/C(=C(\C)c2ccc(Cl)cc2)c2ccc(OCCN3CCCCC3)cc2)cc1
[1]
  GI50: 1.45 µM
  TGI: 3.21 µM

## Clc1ccc(-c2cc(-c3ccccc3)nc(NCCNc3ccnc4cc(Cl)ccc34)n2)cc1
[1]
  GI50: 1.48 µM
  TGI: 3.15 µM

## COc1ccc(/C=C/C(=O)c2ccc(OC)c(OC)c2)cc1O
[1]
  GI50: 3.59 µM
  TGI: 19.6 µM

## CCCCCCCCCCCCCCCCC(=O)O.CCCCCCCCCCCCCCCCCC(=O)O.CCCCCCCCCCCCCCCCCC(=O)O.CCCCCCCCCCCCCCCCCC(=O)O.CCCCCCCCCCCCCCCCCC(=O)O.CO[CH-]OC12COC1CC(O)C1(C)C(O)C(OC(C)O)C3=C(C)C(OC(=O)C(O)C([NH-])c4ccccc4)CC(O)(C(OC(=O)c4ccccc4)C21)C3(C)C.[Cu+].[Zn].[Zn].[Zn].[Zn].[Zn] (stereo unspecified)
[1]
  GI50: 0.00338 µM
  TGI: 0.0166 µM

## COc1cc(C(=O)N/N=C/c2ccc(N(C)C)cc2)cc(OC)c1OC
[1]
  GI50: 0.225 µM
  TGI: 1.19 µM

## CCCCCCCCn1ccc2cc(NC(=O)Cn3cc(CN4CCCCC4)nn3)ccc21
[1]
  GI50: 1.67 µM
  TGI: 3.73 µM

## CN1C/C=C/CCOc2cccc(c2)-c2ccnc(n2)Nc2cccc(c2)C1
[1]
  GI50: 0.0366 µM
  TGI: 0.107 µM

## CN1CCN(Cc2ccc(NC(=O)c3cccc(C#Cc4cnc(N)c5ncccc45)c3F)cc2C(F)(F)F)CC1
[1]
  GI50: 6.2 µM
  TGI: 16 µM

## COc1ccc(Nc2cc(C)nc(NCCCNc3ccnc4cc(Cl)ccc34)n2)cc1
[1]
  GI50: 1.39 µM
  TGI: 2.79 µM

## NC(N)=N/N=C/c1ccc(-c2ccc(-c3cc(Cl)cc(Cl)c3)s2)cc1
[1]
  GI50: 1.83 µM
  TGI: 3.81 µM

## Oc1cc2ccccc2c(-c2c(O)c(O)cc3ccccc23)c1O
[1]
  GI50: 1.09 µM
  TGI: 17.2 µM

## Cn1c(=O)c(Oc2ccc(F)cc2F)cc2cnc(NC3CCS(=O)(=O)CC3)nc21
[1]
  GI50: > 25 µM
  TGI: > 25 µM

## Cn1c(/C=C/[N+](=O)[O-])cc2ccccc21
[1]
  GI50: 1.77 µM
  TGI: 3.37 µM

## O=C1c2cccc(NCCN=Cc3ccccc3O)c2C(=O)c2c(NCCN=Cc3ccccc3O)cccc21
[1]
  TGI: 0.191 µM

## O=C(/C=C/c1csc(Br)n1)NO
[1]
  GI50: 2.9 µM
  TGI: 21.5 µM

## CC(=O)OC1CC2C3CCC4C[C@@H](NC(=O)C=C(C)C)CC[C@]4(C)C3CC[C@]2(C)[C@H]1C(C)N(C)C (stereo partly specified)
[1]
  GI50: 0.8 µM
  TGI: 2.37 µM

## Nc1nn2c(-c3cc4cc(Br)ccc4oc3=O)ccnc2c1N=Nc1ccc(Br)cc1
[2]
  GI50: 3.76 µM
  TGI: > 100 µM
[1]
  GI50: 2.04 µM
  TGI: 5.47 µM
[3]
  GI50: 1.73 µM
  TGI: 3.4 µM
[4]
  GI50: 2.18 µM
  TGI: 4.93 µM
[5]
  GI50: 2.72 µM
  TGI: 8.76 µM
[6]
  GI50: 1.73 µM
  TGI: 3.13 µM
[7]
  GI50: 2.2 µM
  TGI: 6.55 µM
[8]
  GI50: 1.81 µM
  TGI: 4.62 µM
[9]
  GI50: 1.75 µM
  TGI: 3.44 µM
[10]
  GI50: 1.99 µM
  TGI: 4.16 µM
[11]
  GI50: 1.99 µM
  TGI: 5.09 µM
[12]
  GI50: 2.14 µM
  TGI: 5.25 µM
[13]
  GI50: 2.25 µM
  TGI: 5.37 µM
[14]
  GI50: 2.81 µM
  TGI: 9.79 µM
[15]
  GI50: 2.09 µM
  TGI: 4.46 µM
[16]
  GI50: 2.94 µM
  TGI: 8.72 µM
[17]
  GI50: 3.06 µM
  TGI: > 100 µM
[18]
  GI50: 2.11 µM
  TGI: 5.21 µM
[19]
  GI50: 2.42 µM
  TGI: 6.86 µM
[20]
  GI50: 3.24 µM
  TGI: > 100 µM
[21]
  GI50: 2.58 µM
  TGI: 8.23 µM
[22]
  GI50: 2.62 µM
  TGI: 6.61 µM
[23]
  GI50: 3.06 µM
  TGI: > 100 µM
[24]
  GI50: 2.89 µM
  TGI: 10.1 µM
[25]
  GI50: 1.96 µM
  TGI: 4.58 µM
[26]
  GI50: 3.68 µM
  TGI: 17.1 µM
[27]
  GI50: 3.28 µM
  TGI: > 100 µM
[28]
  GI50: > 100 µM
  TGI: > 100 µM
[29]
  GI50: 1.76 µM
  TGI: 3.35 µM
[30]
  GI50: 2.84 µM
  TGI: 10.9 µM
[31]
  GI50: 5.12 µM
  TGI: > 100 µM
[32]
  GI50: 3.24 µM
  TGI: > 100 µM
[33]
  GI50: 2.29 µM
  TGI: 6.8 µM
[34]
  GI50: 2.33 µM
  TGI: 6.37 µM
[35]
  GI50: 3.34 µM
  TGI: > 100 µM
[36]
  GI50: > 100 µM
  TGI: > 100 µM
[37]
  GI50: 3.74 µM
  TGI: > 100 µM
[38]
  GI50: 1.94 µM
  TGI: 3.87 µM
[39]
  GI50: 3.25 µM
  TGI: > 100 µM
[40]
  GI50: 2.06 µM
  TGI: 4.4 µM
[41]
  GI50: 1.81 µM
  TGI: 3.92 µM
[42]
  GI50: 2 µM
  TGI: 4.61 µM
[43]
  GI50: 2.22 µM
  TGI: 5.01 µM
[44]
  GI50: 1.86 µM
  TGI: 4.01 µM
[45]
  GI50: 2.34 µM
  TGI: 5.08 µM
